Source: patent US11117892B2, “Pyrrolo-pyridine derivative compound, method for preparing same, and pharmaceutical composition containing same as active ingredient for prevention or treatment of protein kinase-related diseases” (DAEGU-GYEONGBUK MEDICAL INNOVATION FOUNDATION, priority 2017, dated 2021)

What was measured:
Assay in all cases: scanMAX Kinase assay panel
Assay type in all cases: binding
Conditions in all cases: read-out: % control
MEK3 = MEK3 (Homo sapiens (Human), UniProt P46734)
Outline: (§1)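 Using scanMAX, compound selectivity across kinases is determined. The output is % control, bounded by a DMSO control at 100% and a reference positive compound at 0%.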

[1] = molecular target: ABL1(Q252H)-phosphorylated (Homo sapiens (Human), UniProt P00519, Q252H)
Outline: as §1

CSNK1A1 = CSNK1A1 (Homo sapiens (Human), UniProt P48729)
CSNK1A1, sequence (P48729 whole entry): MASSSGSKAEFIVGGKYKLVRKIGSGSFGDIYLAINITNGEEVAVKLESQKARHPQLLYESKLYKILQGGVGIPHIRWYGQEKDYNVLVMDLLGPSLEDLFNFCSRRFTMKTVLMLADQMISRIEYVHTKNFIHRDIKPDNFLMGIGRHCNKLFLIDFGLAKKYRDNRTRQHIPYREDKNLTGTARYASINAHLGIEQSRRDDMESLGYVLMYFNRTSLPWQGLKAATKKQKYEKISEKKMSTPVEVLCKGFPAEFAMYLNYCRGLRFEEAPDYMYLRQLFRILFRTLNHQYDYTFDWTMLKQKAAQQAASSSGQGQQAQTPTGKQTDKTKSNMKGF
Outline: as §1

DAPK1 = DAPK1 (Homo sapiens (Human), UniProt P53355)
Outline: as §1

PAK7 = PAK7 (Homo sapiens (Human), UniProt Q9P286)
PAK7, sequence (Q9P286 whole entry): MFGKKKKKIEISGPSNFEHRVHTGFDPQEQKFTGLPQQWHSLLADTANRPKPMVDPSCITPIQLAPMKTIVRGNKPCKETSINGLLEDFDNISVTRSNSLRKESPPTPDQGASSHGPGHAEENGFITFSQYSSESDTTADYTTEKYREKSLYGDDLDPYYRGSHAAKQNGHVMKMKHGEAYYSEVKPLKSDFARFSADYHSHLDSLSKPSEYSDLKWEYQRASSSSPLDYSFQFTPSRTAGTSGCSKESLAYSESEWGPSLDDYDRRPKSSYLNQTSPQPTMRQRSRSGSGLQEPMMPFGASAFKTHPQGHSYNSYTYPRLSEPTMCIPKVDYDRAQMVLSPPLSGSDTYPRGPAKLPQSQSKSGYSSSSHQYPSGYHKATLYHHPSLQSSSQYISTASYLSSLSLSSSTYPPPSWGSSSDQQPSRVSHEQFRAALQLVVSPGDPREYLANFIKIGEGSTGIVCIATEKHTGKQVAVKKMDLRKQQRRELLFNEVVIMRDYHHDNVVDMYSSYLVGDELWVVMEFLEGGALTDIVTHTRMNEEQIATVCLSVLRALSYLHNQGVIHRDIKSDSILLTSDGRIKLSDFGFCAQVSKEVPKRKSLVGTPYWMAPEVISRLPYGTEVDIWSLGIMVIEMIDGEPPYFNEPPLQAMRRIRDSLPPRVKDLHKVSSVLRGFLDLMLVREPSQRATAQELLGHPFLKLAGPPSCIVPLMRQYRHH
Outline: as §1

ALK = ALK (Homo sapiens (Human), UniProt Q9UM73)
Outline: as §1

PIK3CG = PIK3CG (Homo sapiens (Human), UniProt P48736)
PIK3CG, sequence (P48736 whole entry): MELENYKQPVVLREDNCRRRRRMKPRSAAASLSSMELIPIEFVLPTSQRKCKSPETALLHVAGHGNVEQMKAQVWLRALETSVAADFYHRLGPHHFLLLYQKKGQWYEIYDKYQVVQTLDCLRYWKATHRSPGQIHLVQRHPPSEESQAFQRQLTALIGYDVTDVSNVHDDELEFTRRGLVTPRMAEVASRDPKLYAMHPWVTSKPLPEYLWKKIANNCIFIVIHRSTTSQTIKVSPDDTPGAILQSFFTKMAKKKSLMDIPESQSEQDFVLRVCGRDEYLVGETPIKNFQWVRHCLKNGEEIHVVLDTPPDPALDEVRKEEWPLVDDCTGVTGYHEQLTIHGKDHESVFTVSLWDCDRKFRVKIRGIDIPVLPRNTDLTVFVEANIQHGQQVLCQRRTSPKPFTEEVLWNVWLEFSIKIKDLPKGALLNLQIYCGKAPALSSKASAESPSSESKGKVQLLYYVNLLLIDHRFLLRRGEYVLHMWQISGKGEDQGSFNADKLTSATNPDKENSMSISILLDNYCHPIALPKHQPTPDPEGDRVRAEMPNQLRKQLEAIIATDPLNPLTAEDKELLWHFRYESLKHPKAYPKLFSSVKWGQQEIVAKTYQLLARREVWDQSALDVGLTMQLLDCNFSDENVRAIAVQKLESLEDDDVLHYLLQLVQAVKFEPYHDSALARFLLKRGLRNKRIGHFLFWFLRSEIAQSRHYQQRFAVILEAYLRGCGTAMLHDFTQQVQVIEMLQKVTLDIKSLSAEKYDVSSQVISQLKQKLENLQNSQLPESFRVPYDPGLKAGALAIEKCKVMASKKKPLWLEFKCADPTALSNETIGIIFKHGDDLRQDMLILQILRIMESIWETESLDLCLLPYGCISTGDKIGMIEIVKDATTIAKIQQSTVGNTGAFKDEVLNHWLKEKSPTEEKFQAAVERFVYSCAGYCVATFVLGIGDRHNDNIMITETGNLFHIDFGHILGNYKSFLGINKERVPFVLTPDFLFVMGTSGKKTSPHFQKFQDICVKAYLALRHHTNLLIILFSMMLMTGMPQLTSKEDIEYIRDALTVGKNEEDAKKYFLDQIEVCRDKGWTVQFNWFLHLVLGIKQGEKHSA
Outline: as §1

MLCK = MLCK (Homo sapiens (Human), UniProt Q32MK0)
Outline: as §1

[2] = molecular target: ABL1(Y253F)-phosphorylated (Homo sapiens (Human), UniProt P00519, Y253F)
Outline: as §1

MKNK1 = MKNK1 (Homo sapiens (Human), UniProt Q9BUB5)
Outline: as §1

EIF2AK1 = EIF2AK1 (Homo sapiens (Human), UniProt Q9BQI3)
Outline: as §1

FER = FER (Homo sapiens (Human), UniProt P16591)
FER, sequence (P16591 whole entry): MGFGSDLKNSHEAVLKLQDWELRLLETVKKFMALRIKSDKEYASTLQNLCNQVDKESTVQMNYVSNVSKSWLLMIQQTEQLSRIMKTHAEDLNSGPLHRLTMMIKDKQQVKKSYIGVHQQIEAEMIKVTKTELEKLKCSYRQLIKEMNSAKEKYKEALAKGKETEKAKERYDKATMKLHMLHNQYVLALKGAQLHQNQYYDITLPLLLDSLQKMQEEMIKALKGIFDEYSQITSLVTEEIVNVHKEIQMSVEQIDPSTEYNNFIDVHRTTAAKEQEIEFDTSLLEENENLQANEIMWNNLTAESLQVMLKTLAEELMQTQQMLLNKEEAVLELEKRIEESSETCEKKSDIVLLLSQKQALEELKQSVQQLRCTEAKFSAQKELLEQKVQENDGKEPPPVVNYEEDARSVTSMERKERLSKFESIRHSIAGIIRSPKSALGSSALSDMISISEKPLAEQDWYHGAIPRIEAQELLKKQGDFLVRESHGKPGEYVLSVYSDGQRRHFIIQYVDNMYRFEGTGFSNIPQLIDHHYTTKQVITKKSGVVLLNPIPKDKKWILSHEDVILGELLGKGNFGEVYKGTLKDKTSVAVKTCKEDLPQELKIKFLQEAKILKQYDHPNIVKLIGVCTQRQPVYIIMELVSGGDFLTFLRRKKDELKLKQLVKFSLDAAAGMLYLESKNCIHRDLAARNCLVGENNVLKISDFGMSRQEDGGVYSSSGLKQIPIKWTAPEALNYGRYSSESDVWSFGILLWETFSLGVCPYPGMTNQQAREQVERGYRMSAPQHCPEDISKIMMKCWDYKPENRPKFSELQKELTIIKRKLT
Outline: as §1

LATS1 = LATS1 (Homo sapiens (Human), UniProt O95835)
Outline: as §1

CAMKK2 = CAMKK2 (Homo sapiens (Human), UniProt Q96RR4)
Outline: as §1

MELK = MELK (Homo sapiens (Human), UniProt Q14680)
Outline: as §1

[3] = molecular target: JAK1(JH1domain-catalytic) (Homo sapiens (Human), UniProt P23458)
Outline: as §1

ITK = ITK (Homo sapiens (Human), UniProt Q08881)
Outline: as §1

CDK4-cyclinD3 = CDK4-cyclinD3 (Homo sapiens (Human), UniProt P11802)
Outline: as §1

PRKCH = PRKCH (Homo sapiens (Human), UniProt P24723)
Outline: as §1

[4] = molecular target: ABL1(E255K)-phosphorylated (Homo sapiens (Human), UniProt P00519, E255K)
Outline: as §1

GCN2(Kin.Dom.2, S808G) = GCN2(Kin.Dom.2, S808G) (Homo sapiens (Human), UniProt Q9P2K8, S808G)
Outline: as §1

ABL2 = ABL2 (Homo sapiens (Human), UniProt P42684)
Outline: as §1

MAP3K15 = MAP3K15 (Homo sapiens (Human), UniProt Q6ZN16)
Outline: as §1

CAMK2B = CAMK2B (Homo sapiens (Human), UniProt Q13554)
CAMK2B, sequence (Q13554 whole entry): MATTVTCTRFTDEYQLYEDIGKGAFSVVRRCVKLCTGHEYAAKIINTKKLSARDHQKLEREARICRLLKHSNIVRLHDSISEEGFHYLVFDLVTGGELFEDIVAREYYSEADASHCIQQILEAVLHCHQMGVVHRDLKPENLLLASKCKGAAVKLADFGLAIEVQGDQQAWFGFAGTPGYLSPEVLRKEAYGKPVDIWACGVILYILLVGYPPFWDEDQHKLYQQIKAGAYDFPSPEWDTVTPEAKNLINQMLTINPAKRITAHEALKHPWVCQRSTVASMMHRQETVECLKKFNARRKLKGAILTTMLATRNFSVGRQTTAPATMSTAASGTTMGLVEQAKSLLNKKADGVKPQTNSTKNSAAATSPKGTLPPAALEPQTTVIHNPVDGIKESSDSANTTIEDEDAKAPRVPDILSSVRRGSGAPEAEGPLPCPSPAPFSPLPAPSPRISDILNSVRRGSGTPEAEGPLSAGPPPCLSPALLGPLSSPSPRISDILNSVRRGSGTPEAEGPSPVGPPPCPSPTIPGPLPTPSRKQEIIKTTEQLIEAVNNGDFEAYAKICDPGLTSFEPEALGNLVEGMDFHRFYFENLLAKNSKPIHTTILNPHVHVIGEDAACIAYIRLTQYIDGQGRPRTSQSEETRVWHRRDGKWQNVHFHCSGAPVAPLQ
Outline: as §1

AURKB = AURKB (Homo sapiens (Human), UniProt Q96GD4)
Outline: as §1

STK36 = STK36 (Homo sapiens (Human), UniProt Q9NRP7)
Outline: as §1

ERK4 = ERK4 (Homo sapiens (Human), UniProt P31152)
Outline: as §1

PLK2 = PLK2 (Homo sapiens (Human), UniProt Q9NYY3)
Outline: as §1

BRSK2 = BRSK2 (Homo sapiens (Human), UniProt Q8IWQ3)
Outline: as §1

BMX = BMX (Homo sapiens (Human), UniProt P51813)
Outline: as §1

WNK3 = WNK3 (Homo sapiens (Human), UniProt Q9BYP7)
Outline: as §1

SRPK2 = SRPK2 (Homo sapiens (Human), UniProt P78362)
Outline: as §1

[5] = molecular target: RSK4(Kin.Dom.1-N-terminal) (Homo sapiens (Human), UniProt Q9UK32)
Outline: as §1

YANK2 = YANK2 (Homo sapiens (Human), UniProt Q9NY57)
YANK2, sequence (Q9NY57 whole entry): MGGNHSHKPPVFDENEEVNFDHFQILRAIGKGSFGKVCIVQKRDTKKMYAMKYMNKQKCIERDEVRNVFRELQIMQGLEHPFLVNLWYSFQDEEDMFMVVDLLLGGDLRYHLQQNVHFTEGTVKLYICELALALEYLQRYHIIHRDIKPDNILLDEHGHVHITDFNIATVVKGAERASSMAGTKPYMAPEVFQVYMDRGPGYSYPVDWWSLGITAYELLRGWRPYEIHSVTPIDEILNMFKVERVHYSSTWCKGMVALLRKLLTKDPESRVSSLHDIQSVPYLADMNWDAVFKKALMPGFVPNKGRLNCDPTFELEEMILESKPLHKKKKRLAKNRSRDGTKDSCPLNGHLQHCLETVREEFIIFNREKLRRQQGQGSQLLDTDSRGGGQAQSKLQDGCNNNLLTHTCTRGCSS
Outline: as §1

HPK1 = HPK1 (Homo sapiens (Human), UniProt Q92918)
Outline: as §1

ERN1 = ERN1 (Homo sapiens (Human), UniProt O75460)
Outline: as §1

TSSK3 = TSSK3 (Homo sapiens (Human), UniProt Q96PN8)
Outline: as §1

BRSK1 = BRSK1 (Homo sapiens (Human), UniProt Q8TDC3)
BRSK1, sequence (Q8TDC3 whole entry): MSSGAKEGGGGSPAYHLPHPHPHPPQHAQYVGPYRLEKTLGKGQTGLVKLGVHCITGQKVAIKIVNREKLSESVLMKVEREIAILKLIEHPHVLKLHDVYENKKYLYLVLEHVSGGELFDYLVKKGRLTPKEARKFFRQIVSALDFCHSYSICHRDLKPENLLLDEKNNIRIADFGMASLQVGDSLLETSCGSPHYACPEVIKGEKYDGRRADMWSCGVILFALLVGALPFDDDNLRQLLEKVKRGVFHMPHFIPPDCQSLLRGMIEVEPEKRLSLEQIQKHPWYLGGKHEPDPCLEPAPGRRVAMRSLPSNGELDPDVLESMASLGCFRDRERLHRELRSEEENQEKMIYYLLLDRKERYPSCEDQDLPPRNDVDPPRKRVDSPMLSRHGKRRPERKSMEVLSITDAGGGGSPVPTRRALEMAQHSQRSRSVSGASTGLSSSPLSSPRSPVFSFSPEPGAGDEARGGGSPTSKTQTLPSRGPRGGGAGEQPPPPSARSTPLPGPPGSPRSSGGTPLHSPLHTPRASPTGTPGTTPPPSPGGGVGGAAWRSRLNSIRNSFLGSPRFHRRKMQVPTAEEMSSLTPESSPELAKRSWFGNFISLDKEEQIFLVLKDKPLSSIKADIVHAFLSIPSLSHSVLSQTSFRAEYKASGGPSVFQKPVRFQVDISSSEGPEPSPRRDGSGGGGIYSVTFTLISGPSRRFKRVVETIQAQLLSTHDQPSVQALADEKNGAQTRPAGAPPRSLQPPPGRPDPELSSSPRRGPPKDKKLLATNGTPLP
Outline: as §1

Row | SMILES | remaining binding at 1 µM (MEK3) [%] | remaining binding at 1 µM [1] [%] | remaining binding at 1 µM (CSNK1A1) [%] | remaining binding at 1 µM (DAPK1) [%] | remaining binding at 1 µM (PAK7) [%] | remaining binding at 1 µM (ALK) [%] | remaining binding at 1 µM (PIK3CG) [%] | remaining binding at 1 µM (MLCK) [%] | remaining binding at 1 µM [2] [%] | remaining binding at 1 µM (MKNK1) [%] | remaining binding at 1 µM (EIF2AK1) [%] | remaining binding at 1 µM (FER) [%] | remaining binding at 1 µM (LATS1) [%] | remaining binding at 1 µM (CAMKK2) [%] | remaining binding at 1 µM (MELK) [%] | remaining binding at 1 µM [3] [%] | remaining binding at 1 µM (ITK) [%] | remaining binding at 1 µM (CDK4-cyclinD3) [%] | remaining binding at 1 µM (PRKCH) [%] | remaining binding at 1 µM [4] [%] | other results
1 | CCNc1cc(Nc2ccc(C(=O)N3CCC(N4CCOCC4)CC3)cc2OC)nc2[nH]cc(C(F)(F)F)c12 [Example 57, (4-((4-(ethylamino)-3-(trifluoromethyl)-1H-pyrrolo[2,3-b]pyridin-6-yl)amino)-3-methoxyphenyl) (4-morpholinopiperidin-1-yl)methanone] | 81 | 100 | 51 | 70 | 100 | 2.5 | 87 | 78 | 100 | 100 | 99 | 67 | 94 | 49 | 69 | 97 | 97 | 100 | 99 | 84 | remaining binding at 1 µM (GCN2(Kin.Dom.2, S808G)): 91%; remaining binding at 1 µM (ABL2): 98%; remaining binding at 1 µM (MAP3K15): 100%; remaining binding at 1 µM (CAMK2B): 80%; remaining binding at 1 µM (AURKB): 81%; remaining binding at 1 µM (STK36): 98%; remaining binding at 1 µM (ERK4): 93%; remaining binding at 1 µM (PLK2): 90%; remaining binding at 1 µM (BRSK2): 79%; remaining binding at 1 µM (BMX): 89%; remaining binding at 1 µM (WNK3): 100%; remaining binding at 1 µM (SRPK2): 100%; remaining binding at 1 µM [5]: 100%; remaining binding at 1 µM (YANK2): 94%; remaining binding at 1 µM (HPK1): 91%; remaining binding at 1 µM (ERN1): 61%; remaining binding at 1 µM (TSSK3): 91%; remaining binding at 1 µM (BRSK1): 94%
2 | CCNc1cc(Nc2ccc(C(=O)N3CCC(N4CCOCC4)CC3)cc2OC)nc2[nH]cc(C#N)c12 [Example 18, 4-(ethylamino)-6-((2-methoxy-4-(4-morpholinopiperidine-1-carbonyl)phenyl)amino)-1H-pyrrolo[2,3-b]pyridine-3-carbonitrile] | 4.3 | 100 | 8.2 | 16 | 80 | 2.7 | 100 | 87 | 89 | 93 | 92 | 62 | 97 | 52 | 62 | 100 | 87 | 100 | 95 | 77 | remaining binding at 1 µM (GCN2(Kin.Dom.2, S808G)): 97%; remaining binding at 1 µM (ABL2): 93%; remaining binding at 1 µM (MAP3K15): 53%; remaining binding at 1 µM (CAMK2B): 73%; remaining binding at 1 µM (AURKB): 73%; remaining binding at 1 µM (STK36): 98%; remaining binding at 1 µM (ERK4): 98%; remaining binding at 1 µM (PLK2): 81%; remaining binding at 1 µM (BRSK2): 96%; remaining binding at 1 µM (BMX): 75%; remaining binding at 1 µM (WNK3): 82%; remaining binding at 1 µM (SRPK2): 100%; remaining binding at 1 µM [5]: 81%; remaining binding at 1 µM (YANK2): 100%; remaining binding at 1 µM (HPK1): 76%; remaining binding at 1 µM (ERN1): 24%; remaining binding at 1 µM (TSSK3): 30%; remaining binding at 1 µM (BRSK1): 94%
